Test [1] concerns SK-BR-3. The experiment in a line: Antiproliferative activity against human SK-BR-3 cells assessed as cell growth inhibition measured after 72 hrs by MTT assay. It is filed as functional. Background: Tetrazolium assays rely on reduction of a dye to a coloured formazan, in cell work by metabolically active cells.
In test [2] the target is Fibroblast growth factor receptor 2 (Homo sapiens) (UniProt P21802). The experiment in a line: Inhibition of human FGFR2 at 10 uM using myelin basic protein as substrate incubated for 40 mins in presence of [gamma33P]ATP by scintillation counting method relative to control.
Test [3] deals with HCT-116. In words: Antiproliferative activity against human HCT-116 cells assessed as cell growth inhibition measured after 72 hrs by MTT assay. The format is functional.
Test [4] concerns HCT-116. In words: Antiproliferative activity against human HCT-116 cells assessed as cell growth inhibition at 10 uM measured after 72 hrs by MTT assay relative to control. It is filed as functional. The following applies: read-out: GI.
Test [5] concerns SK-BR-3. In words: Antiproliferative activity against human SK-BR-3 cells assessed as cell growth inhibition at 10 uM measured after 72 hrs by MTT assay relative to control. The format is functional. The following applies: read-out: GI.
The target in test [6] is Fibroblast growth factor receptor 1 (Homo sapiens) (UniProt P11362). In words: Inhibition of human FGFR1 at 10 uM using myelin basic protein as substrate incubated for 40 mins in presence of [gamma33P]ATP by scintillation counting method relative to control.
The test system of test [7] is MCF7. In words: Antiproliferative activity against human MCF7 cells assessed as cell growth inhibition at 10 uM measured after 72 hrs by MTT assay relative to control. The format is functional. The following applies: read-out: GI.
The subject of test [8] is MCF7. In words: Antiproliferative activity against human MCF7 cells assessed as cell growth inhibition measured after 72 hrs by MTT assay. The format is functional.
Test [9] deals with High affinity nerve growth factor receptor (Homo sapiens, UniProt P04629). In words: Inhibition of human Trk-A using myelin basic protein as substrate incubated for 40 mins in presence of [gamma33P]ATP by scintillation counting method.
High affinity nerve growth factor receptor, sequence (P04629 whole entry): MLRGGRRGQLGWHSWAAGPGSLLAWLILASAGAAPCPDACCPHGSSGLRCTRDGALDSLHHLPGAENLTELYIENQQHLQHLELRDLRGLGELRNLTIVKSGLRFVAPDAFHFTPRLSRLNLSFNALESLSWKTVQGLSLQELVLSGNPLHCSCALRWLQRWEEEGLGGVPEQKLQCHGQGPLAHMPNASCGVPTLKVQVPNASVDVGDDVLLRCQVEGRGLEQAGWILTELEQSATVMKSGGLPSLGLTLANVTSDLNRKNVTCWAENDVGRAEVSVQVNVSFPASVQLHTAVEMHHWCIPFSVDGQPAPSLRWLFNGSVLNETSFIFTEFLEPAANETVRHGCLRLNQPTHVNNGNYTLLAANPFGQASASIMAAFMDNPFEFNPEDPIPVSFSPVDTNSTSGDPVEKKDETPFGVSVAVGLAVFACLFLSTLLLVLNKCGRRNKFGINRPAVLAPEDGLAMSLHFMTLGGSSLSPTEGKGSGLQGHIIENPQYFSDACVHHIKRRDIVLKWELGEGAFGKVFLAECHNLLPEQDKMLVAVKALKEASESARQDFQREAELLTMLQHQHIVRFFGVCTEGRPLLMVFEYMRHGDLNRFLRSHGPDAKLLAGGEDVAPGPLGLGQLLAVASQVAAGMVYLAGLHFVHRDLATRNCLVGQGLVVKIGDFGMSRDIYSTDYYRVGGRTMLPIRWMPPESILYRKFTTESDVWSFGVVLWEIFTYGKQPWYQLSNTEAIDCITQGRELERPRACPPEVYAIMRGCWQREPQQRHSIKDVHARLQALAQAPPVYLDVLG

Fibroblast growth factor receptor 2 (Homo sapiens), sequence (P21802 22-821 limits assumed): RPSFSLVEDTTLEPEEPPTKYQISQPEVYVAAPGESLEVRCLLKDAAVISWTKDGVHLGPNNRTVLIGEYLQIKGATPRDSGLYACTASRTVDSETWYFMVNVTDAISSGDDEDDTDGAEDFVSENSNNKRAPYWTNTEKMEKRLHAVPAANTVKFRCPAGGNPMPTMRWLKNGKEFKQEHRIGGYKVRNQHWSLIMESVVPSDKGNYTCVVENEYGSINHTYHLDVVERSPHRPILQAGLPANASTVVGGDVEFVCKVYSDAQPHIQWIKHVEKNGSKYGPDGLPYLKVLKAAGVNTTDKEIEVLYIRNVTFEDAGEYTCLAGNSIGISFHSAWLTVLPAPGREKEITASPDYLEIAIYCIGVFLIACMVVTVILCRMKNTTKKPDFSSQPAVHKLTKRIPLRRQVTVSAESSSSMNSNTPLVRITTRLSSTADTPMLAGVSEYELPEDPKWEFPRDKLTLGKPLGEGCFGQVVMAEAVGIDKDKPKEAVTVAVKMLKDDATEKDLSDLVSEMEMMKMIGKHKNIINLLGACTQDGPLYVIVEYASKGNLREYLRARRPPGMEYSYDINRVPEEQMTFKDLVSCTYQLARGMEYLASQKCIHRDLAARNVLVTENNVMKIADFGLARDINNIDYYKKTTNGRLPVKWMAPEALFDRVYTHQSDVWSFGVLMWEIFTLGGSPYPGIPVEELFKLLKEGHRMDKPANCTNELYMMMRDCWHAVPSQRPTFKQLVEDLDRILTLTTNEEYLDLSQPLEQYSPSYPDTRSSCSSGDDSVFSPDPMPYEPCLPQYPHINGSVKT
Fibroblast growth factor receptor 1 (Homo sapiens), sequence (P11362 22-822 limits assumed): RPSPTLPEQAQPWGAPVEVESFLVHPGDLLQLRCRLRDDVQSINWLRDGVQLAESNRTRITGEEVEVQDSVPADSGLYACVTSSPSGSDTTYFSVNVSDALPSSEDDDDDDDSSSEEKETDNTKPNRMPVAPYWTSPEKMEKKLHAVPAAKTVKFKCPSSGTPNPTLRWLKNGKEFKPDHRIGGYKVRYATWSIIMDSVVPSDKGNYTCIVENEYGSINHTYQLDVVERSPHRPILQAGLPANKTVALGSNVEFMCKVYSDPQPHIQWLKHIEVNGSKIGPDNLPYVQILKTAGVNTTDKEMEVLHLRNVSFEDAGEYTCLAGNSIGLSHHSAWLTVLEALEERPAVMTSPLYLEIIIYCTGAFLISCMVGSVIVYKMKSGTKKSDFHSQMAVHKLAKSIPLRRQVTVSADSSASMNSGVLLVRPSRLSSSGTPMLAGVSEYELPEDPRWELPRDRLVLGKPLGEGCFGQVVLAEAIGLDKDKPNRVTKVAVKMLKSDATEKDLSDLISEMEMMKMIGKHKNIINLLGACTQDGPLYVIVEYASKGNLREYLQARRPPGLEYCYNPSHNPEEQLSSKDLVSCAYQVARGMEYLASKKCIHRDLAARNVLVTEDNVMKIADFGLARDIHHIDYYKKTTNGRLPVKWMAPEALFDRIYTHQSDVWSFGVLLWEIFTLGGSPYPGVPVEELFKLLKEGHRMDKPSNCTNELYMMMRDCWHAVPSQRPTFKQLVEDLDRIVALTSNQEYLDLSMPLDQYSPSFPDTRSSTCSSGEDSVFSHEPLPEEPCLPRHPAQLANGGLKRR

What is called GI50 is the concentration giving 50% growth inhibition. What is called inhibition is the relative decrease from the control value, in per cent. In general, IC50 refers to the concentration needed to halve the response being measured. On to `CCCCCCCC(=O)Nc1nc2[nH]c(CN3CCN(Cc4ccc(F)cc4)CC3)c(CN3CCN(Cc4ccc(F)cc4)CC3)c2c(=O)[nH]1`, for which the 50% growth inhibitory concentration (GI50) in test [1] is 3.6 µM; in [3], 4.13 µM; in [8], 1.75 µM. For the same molecule, the inhibition worked out at 14.7% in test [2] and 50.5% in [6]. The inhibition of growth at 10 µM in test [4] was determined as 97.1%; in test [5], 93.5%; in test [7], 97.2%. Moreover, the IC50 in test [9] was 2.76 µM.
As for `CCCCCCCC(=O)Nc1nc2[nH]cc(CN3CCN(Cc4cccc(F)c4)CC3)c2c(=O)[nH]1`, the figures for the GI50 in test [1], in test [3] and in test [8] were 5.58 µM, 5.34 µM and 7.84 µM, respectively. The inhibition of growth at 10 µM in test [4] stood at 92.8%; in [5], 91.2%; in test [7], 85.7%.
On to `CCCCCCCC(=O)Nc1nc2[nH]c(CN3CCN(Cc4ccccc4)CC3)c(CN3CCN(Cc4ccccc4)CC3)c2c(=O)[nH]1`, for which the GI50 in test [1] came to 3.64 µM; in test [3] it was 4.09 µM; in test [8], 2.78 µM. Besides, the values for the inhibition in test [2] and in test [6] were 24% and 47.1%, respectively. For the same molecule, the values for the inhibition of growth at 10 µM in test [4], in test [5] and in test [7] were 97%, 93.4% and 96.6%, respectively. Besides, the IC50 in test [9] was found to be 2.29 µM.
As for `CCCCCCCC(=O)Nc1nc2[nH]c(CN3CCN(Cc4ccccc4F)CC3)c(CN3CCN(Cc4ccccc4F)CC3)c2c(=O)[nH]1`, the GI50 in [1] turned out to be 3.73 µM; in test [3], 1.89 µM; in [8], 4.2 µM. For the same molecule, the inhibition is 23% in test [2] and 59.8% in [6]. For the same molecule, the inhibition of growth at 10 µM in test [4] was found to be 97.3%; in test [5], 93.4%; in test [7], 96.1%. Further, the IC50 in test [9] was found to be 3.15 µM.

Source of the values: ChEMBL document CHEMBL4673219, “Novel 5,6-disubstituted pyrrolo[2,3-d]pyrimidine derivatives as broad spectrum antiproliferative agents: Synthesis, cell based assays, kinase profile and molecular docking study” (Bioorg Med Chem, 2018).
